Legend:
[1] = system: cyclodextrin glycosyltransferase (E.C. 2.4.1.19); assay type: biochemical, Micrococcus varians M 849; conditions: pH 7
[2] = Inactivation of the enzyme by pH and temperature, with and without calcium

Compound	Inhibition of the enzyme (in words) [1]	Residual activity [1] [%]	Rise of the temperature at which the enzyme is still stable, versus absence of the metal ion ([2]; 10^-2 M calcium chloride, 15 min treatment (FIG. 6)) [°C]	Thermostability of the enzyme on addition of the salt ([2]; 10^-2 M-10^-3 M calcium chloride)
O=S(=O)([O-])[O-].[Fe+2] [FeSO4]	inhibited	10		
O=S(=O)([O-])[O-].[Cu+2] [CuSO4]	inhibited	6		
[Cl-].[Cl-].[Mg+2] [MgCl2]		100		
[Ca+2].[Cl-].[Cl-] [CaCl2, calcium chloride]		100	~5	enhanced
HgCl2	inhibited	5		
[Cl-].[Cl-].[Zn+2] [ZnCl2]		100		
O=C(O)CI [Monoiodoacetic acid]		97		
[Cl-].[Cl-].[Co+2] [CoCl2]		88		
O=C(O)CN(CCN(CC(=O)O)CC(=O)O)CC(=O)O [Ethylenediaminetetraacetic acid]	inhibited	2		
O=C(O)c1cc[c]([Hg][Cl])cc1 [p-Chloromercuribenzoic acid]		95		
c1cnc2c(c1)ccc1cccnc12 [O-Phenanthroline]		100		
O=S(=O)([O-])[O-].[Mg+2] [MgSO4]		100		
